Source: patent publication EP1756142B1, “PSEUDOPEPTIDES GROWTH HORMONE SECRETAGOGUES” (Mediolanum Farmaceutici S.p.A., priority 2004, dated 2008)

Experiments:
GH release [1] = test: stimulation of GH release in vitro
GH release [2] = test: GH release in vivo after subcutaneous injection in neonatal rats
[3] = system: human pituitary gland tissues; test: binding affinity to human pituitary gland tissues; conditions: compared with Ghrelin, hexarelin, MK 0677 and JMV 1843

SMILES: CC(C)(N)C(=O)N[C@H](Cc1c[nH]c2ccccc12)C(=O)N[C@@H](C=NOCC(N)=O)Cc1c[nH]c2ccccc12 [(Ia), Aib-D-Trp-D-Trpψ[CH=N∼O]Gly-NH2]
- stimulating the GH release in vitro (GH release [1]): remarkably potent
- stimulating the GH release in vivo (GH release [2]; in vivo): remarkably potent
- amount of growth hormone released (GH release [2]; neonatal rats, injected subcutaneously, compared with MK 0677 and hexarelin): exceeded the amount released when the standard GH secretagogues MK 0677 and hexarelin were administered
- binding affinity [3]: comparable to that of the natural ligand Ghrelin and superior to the binding affinity of the synthetic GH secretagogues
